Laboratory results from patent US11053205B2, “Phenazine derivatives as antimicrobial agents” (University of Florida Research Foundation, Incorporated, priority 2017, dated 2021).
≈ marks a conversion by molar mass, not a printed value. Where “and” joins values, the source holds several entries; their conditions need not be identical. Identical values can stand only once. Like-named read-outs stand apart in the source and are kept apart here. Marks after values point to notes of the source that are not given here.

Key:
[1] = tested on: M. tuberculosis H37Ra (ATCC 25177); experiment: MIC assay for Mycobacterium tuberculosis; format: cell-based; conditions: read-out: MtB H37Ra MIC
Protocol: (§1) The culture was then diluted with fresh medium until an OD600 of 0.01 was reached. […] The final DMSO concentration was maintained at 0.5%. […] Three rows were reserved for each compound. […] OD600 absorbance was recorded using SPECTRAMAX M5 (Molecular Devices). Data obtained from three independent experiments were analyzed using Excel.
as §1, with “SpectraMax” for “SPECTRAMAX”

MRSA BAA-1707 [2] = experiment: MIC, broth microdilution (CLSI); conditions: 16 to 18 hours at 37° C.; 0.10 = lowest concentration tested
MRSE 35984 = experiment: MIC, broth microdilution (CLSI); conditions: for MRSE 35984 MIC: 16 to 18 hours at 37° C.
VRE 700221 = experiment: MIC, broth microdilution (CLSI); conditions: 16 to 18 hours at 37° C.
MRSA-2 = experiment: MIC, broth microdilution (CLSI); conditions: for MRSA-2 MIC: 16 to 18 hours at 37° C.
MRSA-2 biofilms = experiment: Calgary Biofilm Device (CBD) assay, MBC/MBEC; conditions: for MRSA-2 MBEC / MRSA-2 MBC: CBD; for MRSA-2 MBEC: biofilm eradication; for MBC: Staphylococcus aureus, MRSA, read-out: MRSA-2 MBC; for MRSA-2 MBC: planktonic killing
MRSE 35984 biofilms = experiment: Calgary Biofilm Device (CBD) assay, MBC/MBEC; conditions: for MBC: Staphylococcus epidermidis, MRSE, read-out: MRSE 35984 MBC; for MRSE 35984 MBEC / MRSE 35984 MBC: CBD; for MRSE 35984 MBEC: biofilm eradication; for MRSE 35984 MBC: planktonic killing
MRSA BAA-1707 biofilms = experiment: Calgary Biofilm Device (CBD) assay, MBC/MBEC; conditions: for MRSA BAA-1707 MBC: planktonic killing
VRE 700221 biofilms = experiment: Calgary Biofilm Device (CBD) assay, MBC/MBEC; conditions: for VRE 700221 MBEC / VRE 700221 MBC: CBD; for VRE 700221 MBEC: biofilm eradication; for VRE 700221 MBC: planktonic killing
MRSA BAA-1707 [3] = experiment: Metal(II)-cation co-treatment MIC assay; format: cell-based; conditions: Staphylococcus aureus
[4] = Mycobacterium tuberculosis, 168 h, seven days at 37° C.

SMILES: Cc1ccc2nc3c(O)ccc(Br)c3nc2c1 [Compound 66A]
- MIC [1]: 25 µM (≈ 7.23 µg/mL)
- MRSA BAA-1707 MIC (MRSA BAA-1707 [2]): 12.5 ^ μM
- MRSE 35984 MIC (MRSE 35984): 12.5 µM
- VRE 700221 MIC (VRE 700221): 25 µM

SMILES: Oc1ccc(Br)c2nc3cc(Cl)ccc3nc12 [Compound 69A]
- MIC [1]: 6.25 µM (≈ 1.93 µg/mL)
- IC50 (HeLa cells): > 100 µM
- MRSE 35984 MIC (MRSE 35984): 18.8^a μM
- VRE 700221 MIC (VRE 700221): 25 µM

SMILES: [H]/N=C(/N)N[C@H]1[C@H](O)[C@@H](O)[C@H](O[C@@H]2O[C@@H](C)[C@](O)(C=O)[C@H]2O[C@@H]2O[C@@H](CO)[C@H](O)[C@@H](O)[C@@H]2NC)[C@@H](N/C(N)=N\[H])[C@@H]1O [streptomycin, reference compound]
- MIC ([1]; Mycobacterium tuberculosis, 168 h): 1.32 µM (≈ 0.768 µg/mL)

SMILES: COCCOCCOCCOCCOC(=O)Oc1c(Br)cc(Br)c2nc3ccccc3nc12 [HP 1-24]
- MIC [1, 4]: 25 µM (≈ 14.7 µg/mL)
- HeLa cell cytotoxicity at 100 μM (HeLa cells): no HeLa cell cytotoxicity
- Hemolysis at 200 μM (human red blood cells; human, 1 h, 200 μM, pH 7.2): 2.4%

SMILES: CO[C@H]1/C=C/O[C@@]2(C)Oc3c(C)c(O)c4c(O)c(c(/C=N/N5CCN(C)CC5)c(O)c4c3C2=O)NC(=O)/C(C)=C\C=C\[C@H](C)[C@H](O)[C@@H](C)[C@@H](O)[C@@H](C)[C@H](OC(C)=O)[C@@H]1C [Rifampin, reference compound]
- MIC (MRSA-2; Staphylococcus aureus, MRSA, read-out: MRSA-2 MIC): 0.1 µM (≈ 0.0823 µg/mL)
- MIC (MRSE 35984; Staphylococcus epidermidis, MRSE, read-out: MRSE 35984 MIC, 16 to 18 hours at 37° C.): 0.1 µM (≈ 0.0823 µg/mL)
- MRSA-2 MBEC (MRSA-2 biofilms): 46.9 µM
- MBC (MRSA-2 biofilms): 2 µM (≈ 1.65 µg/mL)
- MBC (MRSE 35984 biofilms): 3 µM (≈ 2.47 µg/mL)

SMILES: Oc1c(Br)cc(Br)c2nc3cc(Cl)ccc3nc12 [Compound 27]
- MIC ([1]; seven days at 37° C.): 3.13 µM (≈ 1.22 µg/mL)
- MRSA BAA-1707 MIC (MRSA BAA-1707 [2]): 0.1 µM
- MRSE 35984 MBEC (MRSE 35984 biofilms): 2.35 µM

SMILES: Oc1c(Br)cc(Br)c2nc3cc(Cl)ccc3nc12 [Compound 61A]
- Hemolysis at 200 μM (human red blood cells): ≤1%
- MRSA-2 MIC (MRSA-2): 0.1^b μM
- MRSE 35984 MIC (MRSE 35984): 0.1^b μM
- MRSA-2 MBEC (MRSA-2 biofilms): 25 µM
- MRSA-2 MBC (MRSA-2 biofilms): 6.25 µM

SMILES: CS(=O)(=O)N1CCN(C(=O)Oc2c(Br)cc(Br)c3nc4ccccc4nc23)C1=O [Compound 76A]
- IC50 (HeLa cells): > 100 µM
- Hemolysis at 200 μM (human red blood cells): ≤1%
- MRSE 35984 MIC (MRSE 35984): 1.56 µM
- VRE 700221 MIC (VRE 700221): 3.13 µM
- MRSA BAA-1707 MBEC (MRSA BAA-1707 biofilms; CBD, biofilm eradication): 75 µM
- MRSA BAA-1707 MBC (MRSA BAA-1707 biofilms; CBD): 37.5 µM
- MRSE 35984 MBEC (MRSE 35984 biofilms): 37.5 µM
- MRSE 35984 MBC (MRSE 35984 biofilms): 18.8 µM
- VRE 700221 MBEC (VRE 700221 biofilms): 9.38^a/9.38^a μM
- VRE 700221 MBC (VRE 700221 biofilms): 9.38^a/9.38^a μM

SMILES: CC(C)(C)c1ccc2nc3c(O)c(Br)cc(Br)c3nc2c1 [Compound 55A]
- Hemolysis at 200 μM (human red blood cells): ≤1%
- MRSA BAA-1707 MIC (MRSA BAA-1707 [2]): 0.1^b μM
- MRSA-2 MIC (MRSA-2): 0.1^b μM
- MRSE 35984 MIC (MRSE 35984): 0.1^b μM
- VRE 700221 MIC (VRE 700221): 0.1^b μM
- MRSA-2 MBEC (MRSA-2 biofilms): 3.13/3.13 μM
- MRSA-2 MBC (MRSA-2 biofilms): 3.13/3.13 μM

SMILES: Cc1ccc2nc3c(O)c(Br)cc(Br)c3nc2c1 [Compound 52A]
- MIC [1]: 6.25 µM (≈ 2.3 µg/mL)
- Hemolysis at 200 μM (human red blood cells): ≤1%
- MRSE 35984 MIC (MRSE 35984): 0.3^a μM
- VRE 700221 MIC (VRE 700221): 2.35^a μM
- VRE 700221 MBEC (VRE 700221 biofilms): 3.13 µM
- VRE 700221 MBC (VRE 700221 biofilms): 12.5 µM

SMILES: O=C(O)CN(CCN(CC(=O)O)CC(=O)O)CC(=O)O [EDTA, ethylenediaminetetraacetic acid, reference compound]
- MRSA BAA-1707 MBC (MRSA BAA-1707 biofilms; CBD): >2000 />2000 μM
- MBC (MRSA BAA-1707 biofilms; Staphylococcus aureus, BAA1707|MRSA, read-out: MRSA BAA-1707 MBC, CBD, planktonic killing): > 2000 µM
- MRSA-2 MBEC (MRSA-2 biofilms): 2000/>2000 μM
- MBC (MRSA-2 biofilms): 2000 µM (≈ 584 µg/mL)
- MRSE 35984 MBEC (MRSE 35984 biofilms): > 2000 µM
- MRSE 35984 MBC (MRSE 35984 biofilms): 1000 µM
- MBC (MRSE 35984 biofilms): 1000 µM (≈ 292 µg/mL)
- MBC (VRE 700221 biofilms; Enterococcus, VRE, read-out: VRE 700221 MBC): > 2000 µM

SMILES: CCc1ccc2nc3c(O)ccc(Br)c3nc2c1 [Compound 67A]
- MIC [1]: 25 µM (≈ 7.58 µg/mL)
- IC50 (HeLa cells): > 100 µM
- MRSE 35984 MIC (MRSE 35984): 9.38^a μM
- VRE 700221 MIC (VRE 700221): 12.5 µM

SMILES: Cc1cc(C)c2nc3c(Br)ccc(O)c3nc2c1 [Compound 68A]
- MIC [1]: 50 µM (≈ 15.2 µg/mL)
- IC50 (HeLa cells): > 100 µM
- MRSA BAA-1707 MIC (MRSA BAA-1707 [2]): 4.69^a μM
- MRSE 35984 MIC (MRSE 35984): 2.35^a μM
- VRE 700221 MIC (VRE 700221): 9.38^a μM

SMILES: Oc1cccc2nc3ccccc3nc12 [1-OHP, 1-hydroxyphenazine]
- MIC (MRSA BAA-1707 [3]): 250 µM
- MIC (MRSA BAA-1707 [3]; read-out: MIC w/ Cu2+): 75 µM
- MIC (MRSA BAA-1707 [3]; read-out: MIC w/ Fe2+): 250 µM
- MIC (MRSA BAA-1707 [3]; read-out: MIC w/ Mg2+): 250 µM
- MIC (MRSA BAA-1707 [3]; read-out: MIC w/ Zn2+): > 500 µM

SMILES: Oc1cccc2cccnc12 [8-OHQ, 8-hydroxyquinoline]
- MIC (MRSA BAA-1707 [3]; read-out: MIC w/ Mg2+): 6.25 µM

SMILES: Oc1c(Br)cc(Br)c2nc3ccc(Cl)cc3nc12 [HP 1-22]
- MIC [1, 4]: 6.25 µM and 2.4 µg/mL
- Hemolysis at 200 μM (human red blood cells; human, 1 h, 200 μM, pH 7.2): ≤1%
